Measurements from patent US20140107062A1, “COMPOSITIONS AND METHODS FOR TREATING OR PREVENTING DISEASES OF BODY PASSAGEWAYS” (Aravasc Inc., priority 2007, published 2014).
In brackets after ≈: the same amount, converted by molar mass. Several values for one entry are separate records, joined by “and”; a condition that tells them apart may be missing. Equal entries are not always repeated. Where two headings read alike, the source gives them in different places.

How the values were obtained:
[1] = Stability of ICG and HCFU (pH, dissolution media, ETDS product); format: physicochemical
Text: A suboptimal pH (4) for the dissomedia was chosen to preserve both and simultaneously quantitate them as they eluted.
A suboptimal but workable pH 4 was chosen to evaluate the release profile.

[2] = Solubility of analytes and polymer in solvents, dissolution media and water; format: physicochemical
[3] = Drug distribution 28-day PK study in naïve mice implanted with ETDS; format: in vivo; settings: for Distribution of drugs from the implants in vivo: subcutaneous ETDS implants in mice
Experimental: An in vivo 28-day PK and drug distribution studies was conducted to understand drug distribution and the release profile/duration of drug-released from the different ETDS.
Nine mice were subcutaneously implanted with the same ETDS as implanted in the efficacy study. […] […] Three animals were terminated at each of these time points. Drug distribution in the plasma and skin tissue was analyzed by LC-MS. The preclinical stents were explanted and assayed for residual drug.

[4] = Drug levels in tumor-bearing mice at efficacy study termination; format: in vivo; settings: for Drug Exposure, Tumor Tissue / Drug Exposure, Plasma: efficacy study; for Drug Exposure, Tumor Tissue: day 28-47; for Drug Exposure, Plasma: day 28-47, n = 8; for Explanted ETDS (Residual - efficacy): n = 3, ETDS 125 ± 25 ug total drug (1:1)
Experimental: The fast release mini-ETDS ensured the highest dose delivery. Coated or uncoated fast release preclinical ETDS were implanted in contact with tumor (300 mm^3), 14 days after inoculation of human esophageal-gastric cancer line NUGC4-GFP into nude mice. Tumor growth inhibition was evaluated over 47 day period post-implantation (FIG. 24). […] The projected in vivo dose/day based on an assumption of constant release after the initial ‘burst-effect’, is about 0.45 mg/kg/day.
A drug-dye distribution study was conducted in naïve mice. Plasma, skin tissue at implant site and skin tissue at contralateral site was sampled at defined intervals ranging from 2 hours-28 days. Similarly, plasma and tumor tissue was sampled at efficacy study termination at either 28 or […] days post implantation.
Drug-dye exposure levels in each of these biological samples was quantitated by LC-MS to obtain correlations between efficacious levels of exposure and release profile in naïve mice.
The LCMS analysis was conducted using validated bioanalytical methods discussed below except for HCFU. […] Samples were processed and analyzed immediately. Values may be underestimated.

[5] = cited from earlier work
[6] = under physiological conditions and under acidic conditions (pH<4); cited from earlier work
[7] = administered systemically; cited from earlier work
[8] = system: liver and lung cancer; settings: preliminary reports, clinical trials; cited from earlier work
[9] = Rat in situ intra-tracheal infusion of THX-polymer formulation; format: in vivo; settings: 8 mg/kg
Experimental: A pilot study of in situ intra-tracheal infusion was performed to estimate tracheal and lung tissue levels after in situ intra-tracheal infusion of THX-polymer formulation.
Two rats (immediately after termination) were intra-tracheally infused over 30 mins with a THX-polymer formulation. The dose was 8 mg/kg and volume was 200 μl. After infusion these were wrapped for 2 hours in a warm heating pad. Tracheo-bronchial and lung tissue were harvested after wiping the lumen area of the tracheo-bronchial lumen with a tissue and spatula (to take off any adsorbed drug) at the end of 2 hours. Samples were frozen at −80 C until processed and analyzed by LC-MS. Sample extraction was conducted at AraVasc Inc. The processed samples were analyzed at Alta Analytical laboratories by LC-MS.
(§1) The equipment used was a SCIEX PE 3000.
(§2) The supernatant extract was subject to LCMS analysis.

[10] = in vivo; settings: rat
Text: The animals were anesthetized while dosing. […] Samples were frozen until processed for LC-MS analysis.
as §1, §2

[11] = DMF, organic solvent or mixture, read-out: Solubility
[12] = DMSO, organic solvent or mixture, read-out: Solubility
[13] = THF, organic solvent or mixture, read-out: Solubility
[14] = acetonitrile, organic solvent or mixture, read-out: Solubility
[15] = dissolution media, read-out: Solubility
[16] = Day 4, FR ETDS, individual mice
[17] = Day 4, fast release (FR) ETDS, individual mice
[18] = Day 7, FR ETDS, individual mice
[19] = Day 14, FR ETDS, individual mice
[20] = Day 28, FR ETDS, individual mice
[21] = mouse, plasma, subcutaneous, Day 28, FR ETDS, individual mice, read-out: Plasma Conc.
[22] = mouse, skin tissue at implantation site, subcutaneous, Day 14, FR ETDS, individual mice, read-out: Tissue Conc. site of implant
[23] = mouse, skin tissue at implantation site, subcutaneous, Day 28, FR ETDS, individual mice, read-out: Tissue Conc. site of implant
[24] = 200 μl, infused over 30 mins, harvested at 2 hours, individual rats

Structure (SMILES)	solubility [2, 11] [mg/mL]	solubility [2, 12] [mg/mL]	solubility [2, 13] [mg/mL]	solubility [2, 14] [mg/mL]	solubility [2, 15] [mg/mL]	solubility ([2]; water, read-out: Solubility) [mg/mL]	Explanted ETDS (Residual - efficacy) [4] [µg]	Distribution of drugs from the implants in vivo [3]	Tissue Conc. site of implant [3, 16]	Plasma Conc. [3, 17]	Plasma Conc. [3, 18]	Tissue Conc. site of implant [3, 18]	Plasma Conc. [3, 19]	Tissue Conc. site of implant [3, 19]	Plasma Conc. [3, 20]	Tissue Conc. site of implant [3, 20]	concentration at 28 day [3, 21] [ng/mL]	concentration at 14 day [3, 22] [ng/g]	concentration at 28 day [3, 23] [ng/g]	pulmonary toxicities [7]	also measured
CCCCCCNC(=O)n1cc(F)c(=O)[nH]c1=O [HCFU, Carmofur]	> 50	> 50	> 50	> 0.4	0.05 to 0.06 (≈ 0.194 to 0.233 mM)	0.02 to 0.03 (≈ 0.0777 to 0.117 mM)	2.1	–	–	–	–	–	–	–	–	–	–	–	–	–	Stability in the dissolution media ([1]; pH>3): unstable; Stability ([1]; pH>4): not stable; Stability ([1]; physiological pH): limited stability; concentration at 28 day ([3]; mouse, plasma, subcutaneous, HCFU, naïve mice, day 28, n = 3, read-out: Drug Exposure, Plasma): 48.2 ng/mL; concentration at 28 day ([3]; mouse, subcutaneous tissue, subcutaneous, HCFU, naïve mice, day 28, n = 3, read-out: Drug Exposure, Subcutaneous Tissue): 43.3 ng/mL; Drug Exposure, Tumor Tissue ([4]; HCFU): 54.1 ng/mL; Drug Exposure, Plasma ([4]; HCFU, tumor-bearing mice): 59 ng/mL and 58.97 ng/mL; Tumor tissue exposure at steady state, average ([4]; HCFU, termination day 28-47): 54 ng/gm
O=c1[nH]cc(F)c(=O)[nH]1 [FLX, 5-fluorouracil]	45.8 (≈ 352 mM)	59 (≈ 454 mM)	42.1 (≈ 324 mM)	1.81 (≈ 13.9 mM)	42.1 (≈ 324 mM)	> 20	–	High levels	–	–	–	–	–	–	–	–	–	–	–	–	–
CCCCCOC(=O)Nc1nc(=O)n([C@@H]2O[C@H](C)[C@@H](O)[C@H]2O)cc1F [CPX, Capecitabine]	> 50	> 50	> 50	> 0.4	> 10	> 10	–	–	–	–	–	–	–	–	–	–	–	–	–	–	–
CC1(C)C(/C=C/C=C/C=C/C=C2\N(CCCCS(=O)(=O)O)c3ccc4ccccc4c3C2(C)C)=[N+](CCCCS(=O)(=O)[O-])c2ccc3ccccc3c21 [ICG, Indocyanine green]	–	–	–	–	–	–	–	remained confined to the site of implantation	15.3 ng/g and 32.4 ng/g and 20.9 ng/g	2.39 ng/mL and 3.76 ng/mL	3.23 ng/mL and 0 ng/mL and 2.26 ng/mL	13.2 ng/g and 12.4 ng/g and 35.9 ng/g	2.23 ng/mL and 0 ng/mL (2×)	13.1 ng/g and 14 ng/g	2.24 ng/mL and 2.26 ng/mL	11.8 ng/g and 11.9 ng/g	2.39	12.2	12.1	–	Stability ([1]; acidic pH<4): not stable; Stability in the dissolution media ([1]; pH<3): unstable; concentration at 4 day ([3]; mouse, plasma, subcutaneous, Day 4, fast release (FR) ETDS, individual mice, read-out: Plasma Conc.): 3.89 ng/mL; in-vivo protein binding [5]: about 95%; half life t1/2 [6]: < 2 min
CC(=O)O[C@H]1C(=O)[C@@]2(C)[C@H]([C@H](OC(=O)c3ccccc3)[C@]3(O)C[C@H](OC(=O)[C@H](O)[C@@H](NC(=O)c4ccccc4)c4ccccc4)C(C)=C1C3(C)C)[C@]1(OC(C)=O)CO[C@@H]1C[C@@H]2O [PTX, Paclitaxel]	154 (≈ 181 mM)	27.2 (≈ 31.9 mM)	–	44.3 (≈ 51.9 mM)	0.05 to 0.06 (≈ 0.0586 to 0.0703 mM)	> 20	15.4	–	18000 ng/g and 6270 ng/g and 6990 ng/g	BLOQ	BLOQ	22000 ng/g and 10300 ng/g and 47000 ng/g	BLOQ	16500 ng/g and 10400 ng/g and 21600 ng/g	BLOQ	12800 ng/g and 10600 ng/g	–	–	18900	No pulmonary toxicities	solubility ([2]; THF): 41.7 mg/mL (≈ 48.8 mM); Explanted ETDS Conc. (residual drug) ([3]; Day 14 explanted FR ETDS): 12.30 µg and 14.82 µg and 15.13 µg; Drug Exposure, Plasma ([3]; PTX, naïve mice, day 28, n = 3): BLOQ; concentration at 28 day ([3]; mouse, subcutaneous tissue, subcutaneous, PTX, naïve mice, day 28, n = 3, read-out: Drug Exposure, Subcutaneous Tissue): 12100 ng/g; Drug Exposure, Tumor Tissue ([4]; PTX): 9,668 ng/gm; Drug Exposure, Plasma ([4]; PTX, tumor-bearing mice): 1.53 ng/gm; Average levels detected in plasma ([4]; PTX, tumor-bearing mice): 1.5 ng/mL
O=C1CCC(N2C(=O)c3ccccc3C2=O)C(=O)N1 (racemic) [THX, 2-(2,6-dioxo-3-piperidinyl)-1H-isoindole-1,3(2H)-dione]	75.5 (≈ 292 mM)	56 (≈ 217 mM)	3.34 (≈ 12.9 mM)	0.79 (≈ 3.06 mM)	3.34 (≈ 12.9 mM)	1.5 (≈ 5.81 mM)	–	–	387 ng/g and 338 ng/g and 6410 ng/g	0.95 ng/mL and 3.26 ng/mL and 0.00 ng/mL	7.27 ng/mL and 9.27 ng/mL	22.5 ng/g and 66.5 ng/g and 18.4 ng/g	2.26 ng/mL and 7.55 ng/mL	15.9 ng/g and 16.8 ng/g	13.7 ng/mL and 7.79 ng/mL	20.2 ng/g and 34.0 ng/g and 15.8 ng/g	9.03	30.9	–	No pulmonary toxicities	disease control rates [8]: 8%-57%; response rates [8]: 4%-10%; Tissue Levels Lung [9, 24]: 0.75 μg/100 mg and 0.58 μg/100 mg; Tissue Levels Trachea [9, 24]: 211.21 μg/100 mg and 290.36 μg/100 mg; THX levels in tracheo-bronchial and lung tissue ([9]; in situ infusion (0.5 hr)): High levels; concentration at 2 h ([9]; rat, lung, other: in situ intra-tracheal infusion, 200 μl, infused over 30 mins, harvested at 2 hours, individual rats, read-out: Tissue Levels Lung): 5800 ng/g; concentration at 7 day ([3]; mouse, plasma, subcutaneous, Day 7, FR ETDS, individual mice, read-out: Plasma Conc.): 5.42 ng/mL; concentration at 20 min ([10]; 4 mg/Kg): 190 ng/mL; concentration at 40 min ([10]; 4 mg/Kg): 440 ng/mL; THX levels in lung tissue ([10]; 12 mg/kg): High levels; THX levels in plasma ([10]; 12 mg/kg): low levels
